In test [1] the target is T1, acetylcholinesterase (AChE) type VI-S from Electrophorus electricus (Electrophorus electricus, UniProt O42275).
T1 construct: purchased Sigma-Aldrich
In words: Cholinesterase inhibition, Ellman's colorimetric method (AChE). It is filed as biochemical. As to the method:
(§1) Anti-GAPDH antibody and enhanced chemiluminescence reagents were purchased from Santa Cruz Biotechnology (Santa Cruz, CA, USA); horseradish peroxidase-conjugated secondary antibody was purchased from Amersham Biosciences (Pittsburgh, PA, USA). Nitrocellulose was purchased from Biorad (Hercules, CA, USA).
(§2) The cholinesterase inhibition was evaluated by Ellman’s colorimetric method with some modifications. Briefly, in a total volume of 1 mL, 415 µL of Tris-HCl buffer 0.1 M (pH 8), 10 µL of a buffer solution of carvacrol or p-cymene (in methanol) at different concentrations (100, 10, 1 and 0.1 µg/mL), and 25 µL of a solution containing 0.28 U/mL of AChE (or BChE) were incubated for 15 min at 37 °C. […] The absorbance was measured at 405 nm in a spectrophotometer (Thermo Scientific Multiskan GO, Monza, Italy).
(§3) The percent inhibition of enzyme activity for acetylcholinesterase, butyrylcholinesterase, and α-amylase was calculated by comparison with the absorbance of the control without sample, following the formula: % = [(A0 − A1)/A0] × 100(1) where A0 is the absorbance of the control without the sample and A1 is the absorbance of the sample.
On the technique in general: DTNB colorimetry detects thiols as they appear.

Test [2] addresses T2, butyrylcholinesterase (BChE) from equine serum (Equus caballus, UniProt P81908).
T2 construct: purchased Sigma-Aldrich; host or cells: equine serum
Briefly: biochemical. Here is the method: as §1, §2, §3

The target of test [3] is T3, porcine pancreatic amylase (Sus scrofa, UniProt P00690).
T3 construct: purchased Sigma-Aldrich
Briefly: biochemical. Here is the method: as §1, §3

Test [4] in a line: Hydrogen peroxide scavenging assay (1,10-phenanthroline). The following applies: cell-free, concentration range 0–1000 μg/mL.
Experimental: Briefly, 0.25 mL of ferrous ammonium sulfate (1 mM) solution was mixed with 1.5 mL of different concentrations (from 6 to 500 μg/mL) of carvacrol, p-cymene; acid gallic was used as a positive control. Then, 62.5 µL of H2O2 (5 mM) was added and the mixture was incubated at room temperature in the dark for 5 min. Then, 1.5 mL of 1,10-phenanthroline (1 mM) was added to each tube, mixed, and incubated for 10 min at room temperature. Finally, the absorbance was measured at 510 nm through a spectrophotometer (Thermo Scientific Multiskan GO, Monza, Italy).
For test [5], the system named is caspase-3 in SH-SY5Y cells. Briefly: Caspase-3 expression (Western blot) in H2O2-induced stress. It is filed as cell-based, Human. The following applies: pretreatment 50 μg/mL for 22 h, then H2O2 100 or 200 μM for 2 h. As to the method: To investigate the neuroprotective effects of carvacrol and p-cymene on H2O2-induced stress in SH-SY5Y cells, the cells were assigned to a total of nine groups: Group 1: control (untreated cells); Groups 2 and 3, cells treated with H2O2 alone, at 100 and 200 μM for two h; Groups 4–5: cells treated with carvacrol or p-cymene MNTD (50 µg/mL) Groups 6–9: cells pretreated with carvacrol or p-cymene MNTD for 22 h and then exposed to H2O2 at 100 and 200 μM for another two h. After the cell lysis, we determined the caspase-3 activity. For caspase-3 activity analysis, the SH-SY5Y cells (1 × 10^4) were seeded in separate wells in 12-well plates (Corning, Inc., Corning, NY, USA). The cells were allowed to reach 70–80% confluency before the treatment groups were initiated. The cells were collected after 24 h and lysed using the Laemmli buffer to extract total proteins. For Western blot analysis, an aliquot of total protein was run on 10% SDS-PAGE gel and transferred to nitrocellulose. […] Immunoreactivity was detected through a sequential incubation with horseradish peroxidase-conjugated secondary antibody and enhanced chemiluminescence reagents. Each band density was measured using ImageJ software (WS Rasband, Image J, NIH, Bethesda, MD, USA).
A general note: In western blotting, separated proteins are transferred to a membrane and probed.

The test system of a further test is AChE. The following applies: carvacrol stronger than its isomer thymol; cited from earlier work.
Another test concerns BChE. The arrangement: method as in doi:10.1007/s10068-015-0093-0. The note with it: at a concentration of 2 mg/mL; cited from earlier work.

Molecules are shown by their SMILES. Entries after “also recorded” stand apart in the source; their conditions may differ. Like-named read-outs stand apart in the source and are kept apart here.

T1 sequence (O42275 24-633): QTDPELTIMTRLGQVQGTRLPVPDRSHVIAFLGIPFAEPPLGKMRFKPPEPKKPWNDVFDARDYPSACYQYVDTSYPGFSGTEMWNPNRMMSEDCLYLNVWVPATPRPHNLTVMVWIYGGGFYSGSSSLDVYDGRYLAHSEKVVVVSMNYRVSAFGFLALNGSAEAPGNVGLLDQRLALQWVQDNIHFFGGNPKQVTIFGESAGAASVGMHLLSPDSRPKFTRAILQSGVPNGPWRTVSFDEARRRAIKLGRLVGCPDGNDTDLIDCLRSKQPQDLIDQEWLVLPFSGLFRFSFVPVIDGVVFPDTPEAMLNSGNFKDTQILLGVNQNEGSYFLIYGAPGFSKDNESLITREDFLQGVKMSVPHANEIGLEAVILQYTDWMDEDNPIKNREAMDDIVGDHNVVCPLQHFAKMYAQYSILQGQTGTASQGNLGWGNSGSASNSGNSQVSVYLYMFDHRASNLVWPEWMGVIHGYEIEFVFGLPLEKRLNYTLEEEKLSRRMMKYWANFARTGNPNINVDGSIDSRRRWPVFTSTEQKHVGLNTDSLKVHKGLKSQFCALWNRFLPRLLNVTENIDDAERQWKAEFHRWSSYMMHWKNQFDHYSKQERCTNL
T3 sequence (P00690 16-511): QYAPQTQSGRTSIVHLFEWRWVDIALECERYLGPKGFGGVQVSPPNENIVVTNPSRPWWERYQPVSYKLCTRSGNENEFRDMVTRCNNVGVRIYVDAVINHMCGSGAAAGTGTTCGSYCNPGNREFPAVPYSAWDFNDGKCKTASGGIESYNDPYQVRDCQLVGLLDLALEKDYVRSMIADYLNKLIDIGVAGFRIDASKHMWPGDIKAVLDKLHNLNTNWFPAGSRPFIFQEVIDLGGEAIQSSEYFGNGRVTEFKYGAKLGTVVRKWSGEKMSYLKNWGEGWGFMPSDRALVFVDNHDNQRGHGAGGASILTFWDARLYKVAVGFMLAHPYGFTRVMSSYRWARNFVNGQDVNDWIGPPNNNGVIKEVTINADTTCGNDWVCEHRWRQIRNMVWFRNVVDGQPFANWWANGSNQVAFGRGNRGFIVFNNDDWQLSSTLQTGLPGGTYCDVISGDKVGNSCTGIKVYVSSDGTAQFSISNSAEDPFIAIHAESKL
T2 sequence (P81908 whole entry): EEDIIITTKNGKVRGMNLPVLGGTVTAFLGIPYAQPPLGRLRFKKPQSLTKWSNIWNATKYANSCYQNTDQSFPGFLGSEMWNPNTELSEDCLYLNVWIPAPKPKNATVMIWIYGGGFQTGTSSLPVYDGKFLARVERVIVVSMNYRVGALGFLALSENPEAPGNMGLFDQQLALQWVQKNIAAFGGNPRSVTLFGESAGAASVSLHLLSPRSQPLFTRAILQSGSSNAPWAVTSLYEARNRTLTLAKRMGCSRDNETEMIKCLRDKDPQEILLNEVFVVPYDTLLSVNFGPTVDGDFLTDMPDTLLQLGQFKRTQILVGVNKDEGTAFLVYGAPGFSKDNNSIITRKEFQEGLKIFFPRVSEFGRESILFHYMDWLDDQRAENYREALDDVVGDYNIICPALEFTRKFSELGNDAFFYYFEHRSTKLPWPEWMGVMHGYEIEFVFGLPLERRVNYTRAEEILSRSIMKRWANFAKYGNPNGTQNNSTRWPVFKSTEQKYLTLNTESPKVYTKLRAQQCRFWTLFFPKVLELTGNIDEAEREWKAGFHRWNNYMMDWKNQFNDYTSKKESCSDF

`Cc1ccc(C(C)C)cc1O` [Carvacrol]: the IC50 was 25.3 µM in test [1]; 218 µM in test [2] (concentration required to reduce the enzymatic activity by 50%, read-out: IC50 BChE (converted)); 1140 µM in test [3] (read-out: IC50 α-Amylase (converted)). Further, in test [4], the H2O2 scavenging activity result is on record as “more active than p-cymene”. In test [5], the caspase-3 expression result is listed as “reduced; also recorded: caspase-3 was inhibited”. Moreover, in the test with AChE, the “inhibitory effect relative to thymol” value is listed as 10 times.
With `Cc1ccc(C(C)C)c(O)c1` [Thymol], in the test with BChE, the “inhibition of BChE activity” value is recorded as 42.2%.
On to `Cc1ccc(C(C)C)cc1` [p-Cymene], for which the results for the IC50 in test [1], in test [2] and in test [3] were 113 µM, 10800 µM and 1600 µM, respectively.

In general, IC50 refers to the concentration needed to halve the response being measured.

Source of the values: PMC10093841 (International Journal of Molecular Sciences, 2023).
